ChEMBL document CHEMBL1821607, “N-Arylalkyl-2-azaadamantanes as cage-expanded polycarbocyclic sigma (σ) receptor ligands” (Bioorg Med Chem Lett, 2011)

Assays:
[1] = target: Sigma non-opioid intracellular receptor 1 (Cavia porcellus, UniProt Q60492); assay: Displacement of [3H](+)-pentazocine from sigma 1 receptor in guinea pig brain homogenates after 90 mins by scintillation counting; assay type: tissue-based
[2] = target: T1, Alpha-2A adrenergic receptor (Homo sapiens) (UniProt P08913); assay: Inhibition of alpha-2A adrenergic receptor at 10 uM by NIMH PDSP
T1 sequence (whole entry): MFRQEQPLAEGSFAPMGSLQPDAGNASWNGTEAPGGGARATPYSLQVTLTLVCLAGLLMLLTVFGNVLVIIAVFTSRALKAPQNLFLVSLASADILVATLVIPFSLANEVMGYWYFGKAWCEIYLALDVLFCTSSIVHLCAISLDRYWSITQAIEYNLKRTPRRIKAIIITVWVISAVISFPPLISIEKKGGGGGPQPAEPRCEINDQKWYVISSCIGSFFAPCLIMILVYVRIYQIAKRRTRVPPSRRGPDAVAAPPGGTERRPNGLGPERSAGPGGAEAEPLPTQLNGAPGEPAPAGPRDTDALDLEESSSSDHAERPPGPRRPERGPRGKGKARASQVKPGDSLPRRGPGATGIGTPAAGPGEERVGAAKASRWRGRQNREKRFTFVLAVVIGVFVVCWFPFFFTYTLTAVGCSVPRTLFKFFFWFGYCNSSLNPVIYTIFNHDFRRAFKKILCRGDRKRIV

[3] = target: T2, Alpha-2C adrenergic receptor (Homo sapiens) (UniProt P18825); assay: Inhibition of alpha-2C adrenergic receptor at 10 uM by NIMH PDSP
T2 sequence (whole entry): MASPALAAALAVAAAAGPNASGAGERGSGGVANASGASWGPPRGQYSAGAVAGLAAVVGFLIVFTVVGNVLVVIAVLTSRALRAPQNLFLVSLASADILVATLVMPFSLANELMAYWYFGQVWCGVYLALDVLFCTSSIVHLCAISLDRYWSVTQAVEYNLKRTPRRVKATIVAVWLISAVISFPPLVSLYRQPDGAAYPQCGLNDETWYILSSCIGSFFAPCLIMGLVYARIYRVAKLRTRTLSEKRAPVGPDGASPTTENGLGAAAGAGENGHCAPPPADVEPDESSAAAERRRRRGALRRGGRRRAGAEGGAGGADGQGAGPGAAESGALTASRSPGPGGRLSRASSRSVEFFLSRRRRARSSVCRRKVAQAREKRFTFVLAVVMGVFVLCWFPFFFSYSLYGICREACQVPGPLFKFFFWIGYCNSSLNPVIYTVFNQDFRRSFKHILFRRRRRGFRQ

[4] = target: Beta-3 adrenergic receptor (Homo sapiens) (UniProt P13945); assay: Inhibition of beta-3 adrenergic receptor at 10 uM by NIMH PDSP
Rattus norvegicus = species: Rattus norvegicus; assay: Inhibition of BZP receptor in rat brain at 10 uM by NIMH PDSP; assay type: tissue-based
[5] = target: D(2) dopamine receptor (Homo sapiens) (UniProt P14416); assay: Inhibition of D2 dopamine receptor at 10 uM by NIMH PDSP
[6] = target: D(3) dopamine receptor (Homo sapiens) (UniProt P35462); assay: Inhibition of D3 dopamine receptor at 10 uM by NIMH PDSP
[7] = target: T3, D(4) dopamine receptor (Homo sapiens) (UniProt P21917); assay: Inhibition of D4 dopamine receptor at 10 uM by NIMH PDSP
T3 sequence (whole entry): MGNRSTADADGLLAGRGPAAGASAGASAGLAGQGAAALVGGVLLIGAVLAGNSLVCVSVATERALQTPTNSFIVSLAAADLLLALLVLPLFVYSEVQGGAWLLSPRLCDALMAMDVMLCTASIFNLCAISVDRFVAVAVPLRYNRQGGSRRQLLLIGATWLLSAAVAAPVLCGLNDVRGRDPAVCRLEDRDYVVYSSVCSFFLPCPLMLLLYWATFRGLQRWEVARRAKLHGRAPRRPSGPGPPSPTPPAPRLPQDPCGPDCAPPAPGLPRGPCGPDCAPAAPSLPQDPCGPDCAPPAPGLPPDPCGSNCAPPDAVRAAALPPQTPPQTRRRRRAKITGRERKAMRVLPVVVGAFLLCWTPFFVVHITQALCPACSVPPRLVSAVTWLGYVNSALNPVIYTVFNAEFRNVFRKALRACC

[8] = target: Histamine H2 receptor (Homo sapiens) (UniProt P25021); assay: Inhibition of H2 receptor at 10 uM by NIMH PDSP
[9] = target: Histamine H3 receptor (Homo sapiens) (UniProt Q9Y5N1); assay: Inhibition of H3 receptor at 10 uM by NIMH PDSP
[10] = target: T4, 5-hydroxytryptamine receptor 1A (Homo sapiens) (UniProt P08908); assay: Inhibition of 5-HT1A receptor at 10 uM by NIMH PDSP
T4 sequence (whole entry): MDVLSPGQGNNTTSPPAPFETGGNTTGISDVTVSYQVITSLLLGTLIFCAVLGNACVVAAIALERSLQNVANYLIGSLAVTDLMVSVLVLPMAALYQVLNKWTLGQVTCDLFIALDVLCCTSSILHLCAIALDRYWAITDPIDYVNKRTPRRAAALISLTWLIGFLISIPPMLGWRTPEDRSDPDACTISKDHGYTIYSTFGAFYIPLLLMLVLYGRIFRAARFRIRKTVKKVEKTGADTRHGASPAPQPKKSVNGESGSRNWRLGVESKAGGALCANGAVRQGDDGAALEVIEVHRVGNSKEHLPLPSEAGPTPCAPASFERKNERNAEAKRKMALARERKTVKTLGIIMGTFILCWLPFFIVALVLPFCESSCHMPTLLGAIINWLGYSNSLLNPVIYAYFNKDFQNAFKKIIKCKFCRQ

[11] = target: Sodium-dependent serotonin transporter (Homo sapiens) (UniProt P31645); assay: Inhibition of SERT at 10 uM by NIMH PDSP
[12] = target: Muscarinic acetylcholine receptor M3 (Homo sapiens) (UniProt P20309); assay: Inhibition of M3 muscarinic receptor at 10 uM by NIMH PDSP
[13] = target: Sodium-dependent noradrenaline transporter (Homo sapiens, UniProt P23975); assay: Inhibition of NET transporter by NIMH PDSP
Chain of Sodium-dependent noradrenaline transporter (P23975 whole entry): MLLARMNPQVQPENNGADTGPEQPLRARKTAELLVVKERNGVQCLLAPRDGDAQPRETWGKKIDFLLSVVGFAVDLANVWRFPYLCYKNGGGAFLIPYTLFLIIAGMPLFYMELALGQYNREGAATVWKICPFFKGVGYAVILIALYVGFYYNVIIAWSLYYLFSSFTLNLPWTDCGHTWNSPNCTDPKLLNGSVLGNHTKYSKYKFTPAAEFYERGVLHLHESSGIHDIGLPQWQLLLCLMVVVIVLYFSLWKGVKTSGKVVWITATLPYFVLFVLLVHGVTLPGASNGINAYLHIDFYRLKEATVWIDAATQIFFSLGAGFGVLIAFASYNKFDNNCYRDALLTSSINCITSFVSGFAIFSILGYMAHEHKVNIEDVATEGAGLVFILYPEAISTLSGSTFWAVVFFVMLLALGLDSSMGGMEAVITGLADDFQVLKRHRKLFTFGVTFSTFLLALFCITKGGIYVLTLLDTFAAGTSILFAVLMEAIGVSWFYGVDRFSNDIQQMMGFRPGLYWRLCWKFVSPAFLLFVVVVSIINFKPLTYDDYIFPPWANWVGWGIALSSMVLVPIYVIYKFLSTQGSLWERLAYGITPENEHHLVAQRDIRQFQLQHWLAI

Chain of Histamine H2 receptor (Homo sapiens) (P25021 whole entry): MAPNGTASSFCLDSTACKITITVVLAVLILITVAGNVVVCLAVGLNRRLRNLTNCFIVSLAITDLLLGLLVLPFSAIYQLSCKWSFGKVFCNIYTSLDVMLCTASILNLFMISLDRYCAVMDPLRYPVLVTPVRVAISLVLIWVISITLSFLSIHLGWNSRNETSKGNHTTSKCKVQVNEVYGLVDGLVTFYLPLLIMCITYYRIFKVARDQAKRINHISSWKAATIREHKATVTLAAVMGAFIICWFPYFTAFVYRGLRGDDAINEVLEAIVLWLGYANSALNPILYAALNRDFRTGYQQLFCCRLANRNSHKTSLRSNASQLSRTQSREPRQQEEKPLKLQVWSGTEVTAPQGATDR
Chain of Sodium-dependent serotonin transporter (Homo sapiens) (P31645 whole entry, looked up): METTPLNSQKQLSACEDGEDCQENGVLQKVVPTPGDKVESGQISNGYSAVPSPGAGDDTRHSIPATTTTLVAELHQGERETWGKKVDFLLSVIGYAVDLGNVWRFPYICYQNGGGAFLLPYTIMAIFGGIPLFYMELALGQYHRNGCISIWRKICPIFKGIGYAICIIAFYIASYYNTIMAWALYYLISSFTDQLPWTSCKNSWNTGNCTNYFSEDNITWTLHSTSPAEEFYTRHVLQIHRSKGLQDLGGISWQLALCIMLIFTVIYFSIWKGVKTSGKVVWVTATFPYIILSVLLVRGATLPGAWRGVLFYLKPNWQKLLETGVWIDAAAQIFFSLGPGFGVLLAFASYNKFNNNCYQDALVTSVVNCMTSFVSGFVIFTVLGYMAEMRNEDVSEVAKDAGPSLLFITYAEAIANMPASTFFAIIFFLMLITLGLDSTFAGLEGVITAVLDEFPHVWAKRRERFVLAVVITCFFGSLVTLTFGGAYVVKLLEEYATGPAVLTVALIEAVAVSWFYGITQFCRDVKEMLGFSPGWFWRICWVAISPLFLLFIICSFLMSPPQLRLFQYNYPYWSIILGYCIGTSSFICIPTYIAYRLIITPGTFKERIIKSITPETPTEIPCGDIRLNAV
Chain of D(2) dopamine receptor (Homo sapiens) (P14416 whole entry): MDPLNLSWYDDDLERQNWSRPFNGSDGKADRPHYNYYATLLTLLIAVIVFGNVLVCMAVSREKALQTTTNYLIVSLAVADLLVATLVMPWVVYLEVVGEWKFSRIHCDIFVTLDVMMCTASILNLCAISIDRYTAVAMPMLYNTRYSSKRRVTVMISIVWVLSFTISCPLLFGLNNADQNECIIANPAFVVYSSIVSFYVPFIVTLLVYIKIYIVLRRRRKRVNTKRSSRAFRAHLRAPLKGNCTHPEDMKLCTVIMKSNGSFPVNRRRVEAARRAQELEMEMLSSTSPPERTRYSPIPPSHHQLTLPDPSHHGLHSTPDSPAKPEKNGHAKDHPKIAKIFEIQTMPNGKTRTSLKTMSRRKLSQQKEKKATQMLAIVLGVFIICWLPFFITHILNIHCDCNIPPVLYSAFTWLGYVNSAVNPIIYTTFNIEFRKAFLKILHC
Chain of D(3) dopamine receptor (Homo sapiens) (P35462 whole entry): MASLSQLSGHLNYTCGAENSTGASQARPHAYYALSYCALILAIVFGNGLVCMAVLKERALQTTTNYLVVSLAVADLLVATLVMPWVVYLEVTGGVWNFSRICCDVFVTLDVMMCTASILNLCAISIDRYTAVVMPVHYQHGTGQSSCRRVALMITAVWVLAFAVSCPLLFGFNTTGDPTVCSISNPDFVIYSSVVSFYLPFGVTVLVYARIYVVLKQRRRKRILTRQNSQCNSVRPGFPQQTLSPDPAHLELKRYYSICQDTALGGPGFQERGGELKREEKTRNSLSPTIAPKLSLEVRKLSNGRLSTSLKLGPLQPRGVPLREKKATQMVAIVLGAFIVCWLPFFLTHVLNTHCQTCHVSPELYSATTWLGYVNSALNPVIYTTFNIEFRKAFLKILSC
Chain of Histamine H3 receptor (Homo sapiens) (Q9Y5N1 whole entry): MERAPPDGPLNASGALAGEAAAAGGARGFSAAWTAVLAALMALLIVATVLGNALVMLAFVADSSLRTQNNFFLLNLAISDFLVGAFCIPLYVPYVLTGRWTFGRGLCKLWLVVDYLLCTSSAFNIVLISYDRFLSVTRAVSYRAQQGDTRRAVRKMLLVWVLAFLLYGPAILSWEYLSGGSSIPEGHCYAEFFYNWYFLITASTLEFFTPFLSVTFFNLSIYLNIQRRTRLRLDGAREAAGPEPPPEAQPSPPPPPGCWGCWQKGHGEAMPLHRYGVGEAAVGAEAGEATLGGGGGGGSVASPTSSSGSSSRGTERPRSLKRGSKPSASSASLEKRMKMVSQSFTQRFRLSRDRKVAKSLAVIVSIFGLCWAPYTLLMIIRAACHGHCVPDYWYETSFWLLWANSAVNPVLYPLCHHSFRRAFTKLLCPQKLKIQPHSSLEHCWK
Chain of Beta-3 adrenergic receptor (Homo sapiens) (P13945 whole entry, looked up): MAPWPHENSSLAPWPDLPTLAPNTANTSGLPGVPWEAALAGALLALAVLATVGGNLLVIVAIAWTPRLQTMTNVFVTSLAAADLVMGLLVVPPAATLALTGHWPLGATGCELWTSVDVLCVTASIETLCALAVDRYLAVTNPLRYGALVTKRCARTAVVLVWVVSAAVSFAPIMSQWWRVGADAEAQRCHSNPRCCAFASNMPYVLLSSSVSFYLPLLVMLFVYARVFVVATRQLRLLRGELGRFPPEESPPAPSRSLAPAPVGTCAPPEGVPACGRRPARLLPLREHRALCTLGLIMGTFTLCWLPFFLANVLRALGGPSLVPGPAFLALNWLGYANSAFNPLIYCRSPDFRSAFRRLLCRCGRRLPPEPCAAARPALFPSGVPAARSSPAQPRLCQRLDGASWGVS
Chain of Muscarinic acetylcholine receptor M3 (Homo sapiens) (P20309 whole entry, looked up): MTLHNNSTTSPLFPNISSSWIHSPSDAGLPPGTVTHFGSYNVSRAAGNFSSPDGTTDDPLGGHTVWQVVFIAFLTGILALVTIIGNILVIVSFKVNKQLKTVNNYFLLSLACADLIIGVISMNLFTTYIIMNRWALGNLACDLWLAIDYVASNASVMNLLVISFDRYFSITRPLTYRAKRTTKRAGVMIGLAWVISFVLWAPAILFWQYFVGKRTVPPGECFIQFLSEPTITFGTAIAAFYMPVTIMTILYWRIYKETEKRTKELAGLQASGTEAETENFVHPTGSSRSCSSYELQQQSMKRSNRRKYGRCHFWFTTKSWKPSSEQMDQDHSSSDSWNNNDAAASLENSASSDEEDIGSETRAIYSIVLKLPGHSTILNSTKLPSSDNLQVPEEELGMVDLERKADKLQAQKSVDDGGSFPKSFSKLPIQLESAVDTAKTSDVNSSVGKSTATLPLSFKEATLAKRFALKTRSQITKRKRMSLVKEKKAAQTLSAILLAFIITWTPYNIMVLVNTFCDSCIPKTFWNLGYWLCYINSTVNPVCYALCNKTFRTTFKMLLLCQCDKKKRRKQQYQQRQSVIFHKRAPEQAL
Chain of Sigma non-opioid intracellular receptor 1 (Q60492 whole entry): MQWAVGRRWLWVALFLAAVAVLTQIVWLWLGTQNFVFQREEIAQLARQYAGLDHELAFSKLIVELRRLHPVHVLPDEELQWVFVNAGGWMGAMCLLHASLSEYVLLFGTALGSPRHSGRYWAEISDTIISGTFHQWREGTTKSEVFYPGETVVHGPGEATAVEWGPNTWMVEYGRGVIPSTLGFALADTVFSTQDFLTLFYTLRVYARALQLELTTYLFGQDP

c1ccc(CN2C3CC4CC(C3)CC2C4)cc1
Ki [1]: 29 nM | inhibition [2]: < 50% | inhibition [3]: < 50% | inhibition [4]: < 50% | inhibition (Rattus norvegicus): < 50% | inhibition [5]: < 50% | inhibition [6]: < 50% | inhibition [7]: < 50% | inhibition [8]: < 50% | inhibition [9]: < 50% | inhibition [10]: < 50% | inhibition [11]: < 50% | inhibition [12]: < 50% | Ki [13]: > 10000 nM

OC12CC3CC(CC(C3)N1Cc1cccc(F)c1)C2 (racemic)
Ki [1]: 862 nM | inhibition [2]: < 50% | inhibition [3]: < 50% | inhibition [4]: < 50% | inhibition (Rattus norvegicus): < 50% | inhibition [5]: < 50% | inhibition [6]: < 50% | inhibition [7]: < 50% | inhibition [8]: < 50% | inhibition [9]: < 50% | inhibition [10]: < 50% | inhibition [11]: < 50% | inhibition [12]: < 50% | Ki [13]: > 10000 nM

OC12CC3CC(CC(C3)N1Cc1ccccc1)C2 (racemic)
Ki [1]: 1450 nM | inhibition [3]: < 50% | inhibition [4]: < 50% | inhibition (Rattus norvegicus): < 50% | inhibition [5]: < 50% | inhibition [6]: < 50% | inhibition [7]: < 50% | inhibition [8]: < 50% | inhibition [9]: < 50% | inhibition [10]: < 50% | inhibition [11]: < 50% | inhibition [12]: < 50%

Fc1cccc(CN2C3CC4CC(C3)CC2C4)c1
Ki [1]: 22 nM | inhibition [2]: < 50% | inhibition [3]: < 50% | inhibition [4]: < 50% | inhibition (Rattus norvegicus): < 50% | inhibition [5]: < 50% | inhibition [6]: < 50% | inhibition [7]: < 50% | inhibition [8]: < 50% | inhibition [9]: < 50% | inhibition [10]: < 50% | inhibition [11]: < 50% | inhibition [12]: < 50% | Ki [13]: > 10000 nM
